The record followed here is patent US9212182B2, “Bicyclic sulfonamide compounds as sodium channel inhibitors” (AMGEN INC., priority 2013, dated 2015).

Where two headings read alike, the source gives them in different places.

For orientation: IC50 means the midpoint of a concentration-inhibition curve. Higher therefore signals lower potency.

In this assay the target is Nav 1.7 (Homo sapiens (Human), UniProt Q15858). Put plainly: in-vitro Nav 1.7 PX (IC50). The assay is classed as cell-based.
The mark [1] stands for this setting: in-vitro Nav 1.7 PX data (PatchXpress).

Nav 1.7, sequence (Q15858 whole entry): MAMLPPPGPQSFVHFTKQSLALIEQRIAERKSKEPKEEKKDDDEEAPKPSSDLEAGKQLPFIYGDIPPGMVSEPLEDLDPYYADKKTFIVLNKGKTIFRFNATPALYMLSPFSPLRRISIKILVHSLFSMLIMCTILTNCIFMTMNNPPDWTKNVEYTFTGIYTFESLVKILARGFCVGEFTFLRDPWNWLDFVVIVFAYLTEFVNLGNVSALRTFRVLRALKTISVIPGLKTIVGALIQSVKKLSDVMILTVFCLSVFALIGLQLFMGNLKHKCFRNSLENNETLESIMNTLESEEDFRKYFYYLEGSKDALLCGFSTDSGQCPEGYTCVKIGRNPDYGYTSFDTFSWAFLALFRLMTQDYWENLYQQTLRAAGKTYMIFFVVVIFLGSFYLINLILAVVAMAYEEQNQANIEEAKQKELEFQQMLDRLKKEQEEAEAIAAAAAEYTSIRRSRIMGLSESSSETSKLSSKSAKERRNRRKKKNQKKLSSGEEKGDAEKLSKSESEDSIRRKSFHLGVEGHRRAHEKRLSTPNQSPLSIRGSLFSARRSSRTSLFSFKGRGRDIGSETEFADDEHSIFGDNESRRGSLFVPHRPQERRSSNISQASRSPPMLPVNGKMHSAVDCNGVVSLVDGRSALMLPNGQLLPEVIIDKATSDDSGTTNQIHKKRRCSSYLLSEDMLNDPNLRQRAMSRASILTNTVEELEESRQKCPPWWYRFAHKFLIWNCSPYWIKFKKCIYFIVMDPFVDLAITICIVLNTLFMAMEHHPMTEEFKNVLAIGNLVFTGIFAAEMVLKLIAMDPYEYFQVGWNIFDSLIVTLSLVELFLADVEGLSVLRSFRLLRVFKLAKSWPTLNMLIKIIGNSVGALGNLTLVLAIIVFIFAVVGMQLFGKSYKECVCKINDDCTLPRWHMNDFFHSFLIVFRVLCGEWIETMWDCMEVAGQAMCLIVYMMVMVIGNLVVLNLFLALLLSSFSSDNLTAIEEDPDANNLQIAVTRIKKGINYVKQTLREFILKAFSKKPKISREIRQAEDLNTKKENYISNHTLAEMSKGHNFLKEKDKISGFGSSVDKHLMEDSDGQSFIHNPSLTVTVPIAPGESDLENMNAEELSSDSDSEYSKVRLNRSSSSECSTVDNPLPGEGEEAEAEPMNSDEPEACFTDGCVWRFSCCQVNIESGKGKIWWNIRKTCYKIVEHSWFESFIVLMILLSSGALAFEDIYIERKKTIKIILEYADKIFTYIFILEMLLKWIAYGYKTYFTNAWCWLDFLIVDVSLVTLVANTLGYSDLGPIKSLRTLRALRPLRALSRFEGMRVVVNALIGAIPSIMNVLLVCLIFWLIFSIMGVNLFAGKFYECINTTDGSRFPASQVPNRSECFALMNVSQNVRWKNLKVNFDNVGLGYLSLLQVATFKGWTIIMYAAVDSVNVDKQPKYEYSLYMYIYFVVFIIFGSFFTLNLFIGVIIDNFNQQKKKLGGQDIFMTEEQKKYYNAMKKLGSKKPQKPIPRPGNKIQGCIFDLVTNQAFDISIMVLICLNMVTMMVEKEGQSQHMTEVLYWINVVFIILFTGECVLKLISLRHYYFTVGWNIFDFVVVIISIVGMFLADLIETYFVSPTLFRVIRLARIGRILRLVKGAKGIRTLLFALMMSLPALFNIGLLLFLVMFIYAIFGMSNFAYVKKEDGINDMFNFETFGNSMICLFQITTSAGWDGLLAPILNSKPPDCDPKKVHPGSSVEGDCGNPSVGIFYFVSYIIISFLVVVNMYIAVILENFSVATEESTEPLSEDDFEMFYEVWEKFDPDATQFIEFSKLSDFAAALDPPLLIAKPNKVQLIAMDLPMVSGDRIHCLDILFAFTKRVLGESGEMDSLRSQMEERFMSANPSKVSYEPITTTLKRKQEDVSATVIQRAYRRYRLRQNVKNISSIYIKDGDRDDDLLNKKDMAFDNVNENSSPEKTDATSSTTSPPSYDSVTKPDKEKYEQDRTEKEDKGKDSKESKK

`COc1cc(-c2cccc(OC(F)F)c2)c(F)cc1-n1c(=O)cnc2cc(S(=O)(=O)Nc3ccon3)ccc21` [Example 1193, 1-(3′-(difluoromethoxy)-2-fluoro-5-methoxy-4-biphenylyl)-N-3-isoxazolyl-2-oxo-1,2-dihydro-6-quinoxalinesulfonamide]: half-maximal inhibition (IC50) was put at 93 nM. With `COc1cc(-c2cc(C)c(F)cc2F)ccc1-n1c(=O)ccc2cc(S(=O)(=O)Nc3ccon3)ccc21` [Example 1065, 1-(2′,4′-difluoro-3-methoxy-5′-methyl-4-biphenylyl)-N-3-isoxazolyl-2-oxo-1,2-dihydro-6-quinolinesulfonamide], under setting [1], it took 9 nM to reach half-maximal inhibition (IC50). The same measure, in the same setting: in the case of `COc1cc(-c2cccc(Cl)c2F)ccc1-n1c(=O)ccc2cc(S(=O)(=O)Nc3ccon3)ccc21` [Example 1057, 1-(3′-chloro-2′-fluoro-3-methoxy-4-biphenylyl)-N-3-isoxazolyl-2-oxo-1,2-dihydro-6-quinolinesulfonamide] it was 11 nM.

With `COc1cc(-c2cccc(OC(C)C)c2)ccc1-n1c(=O)ccc2cc(S(=O)(=O)Nc3nccc(C)n3)ccc21` (atropisomer, axis not shown; (P)) [Example 1206, (P)-1-(3-methoxy-3′-(1-methylethoxy)-4-biphenylyl)-N-(4-methyl-2-pyrimidinyl)-2-oxo-1,2-dihydro-6-quinolinesulfonamide], the 50% inhibitory concentration (IC50) is 590 nM. In turn, `O=c1ccc2cc(S(=O)(=O)Nc3cnccn3)ccc2n1-c1ccc(-c2cc(F)cc(F)c2)cc1C1CC1` [Example 1044, 1-(3-cyclopropyl-3′,5′-difluoro-4-biphenylyl)-2-oxo-N-2-pyrazinyl-1,2-dihydro-6-quinolinesulfonamide] returned an IC50 under setting [1] of 2950 nM. `COc1cc(-c2cccc(C3CC3)c2)c(F)cc1-n1c(=O)ccc2cc(S(=O)(=O)Nc3ccon3)ccc21` [Example 790, 1-(3′-cyclopropyl-2-fluoro-5-methoxy-4-biphenylyl)-N-3-isoxazolyl-2-oxo-1,2-dihydro-6-quinolinesulfonamide] displayed an IC50 (in-vitro Nav 1.7 PX data) of 5 nM. Compound `COc1ccc(C#CC2CCCC2)cc1-n1c(=O)ccc2cc(S(=O)(=O)Nc3ccon3)ccc21` [Example 1147, 1-(5-(cyclopentylethynyl)-2-methoxyphenyl)-N-3-isoxazolyl-2-oxo-1,2-dihydro-6-quinolinesulfonamide] had an IC50 of 121 nM. That is a sub-micromolar value. For the setting “in-vitro Nav 1.7 PX data”, `COc1cc(-c2cc(Cl)cnc2OC)ccc1-n1c(=O)ccc2cc(S(=O)(=O)Nc3ccon3)ccc21` [Example 813, 1-(4-(5-chloro-2-methoxy-3-pyridinyl)-2-methoxyphenyl)-N-3-isoxazolyl-2-oxo-1,2-dihydro-6-quinolinesulfonamide] gave an IC50 of 101 nM. The compound `COc1cc(Br)ccc1-n1c(=O)ccc2cc(S(=O)(=O)Nc3ccon3)ccc21` (atropisomer, axis not shown; (P)) [Example 574, (P)-1-(4-bromo-2-methoxyphenyl)-N-3-isoxazolyl-2-oxo-1,2-dihydro-6-quinolinesulfonamide] showed an IC50 of 772 nM. For the compound `COc1cc(-c2cc(F)cc(C(F)F)c2)ccc1-n1c(=O)ccc2cc(S(=O)(=O)Nc3ccon3)ccc21` [Example 1068, 1-(3′-(difluoromethyl)-5′-fluoro-3-methoxy-4-biphenylyl)-N-3-isoxazolyl-2-oxo-1,2-dihydro-6-quinolinesulfonamide], the IC50 under setting [1] is 75 nM. That is a double-digit nanomolar value. `COc1cc(-c2ccc(C)c(Cl)c2)ccc1-n1c(=O)ccc2cc(S(=O)(=O)Nc3ccon3)ccc21` (atropisomer, axis not shown; (M)) [Example 588, (M)-1-(3′-chloro-3-methoxy-4′-methyl-4-biphenylyl)-N-3-isoxazolyl-2-oxo-1,2-dihydro-6-quinolinesulfonamide] yielded a half-maximal inhibitory concentration (IC50) of 1020 nM. `COc1cc(-c2ccc(Cl)cc2)c(F)cc1-n1c(=O)ccc2cc(S(=O)(=O)Nc3ccon3)ccc21` [634/675, 1-(4′-chloro-2-fluoro-5-methoxy-4-biphenylyl)-N-3-isoxazolyl-2-oxo-1,2-dihydro-6-quinolinesulfonamide] came in with a concentration for half-maximal inhibition (IC50) (in-vitro Nav 1.7 PX data) of 13 nM.

As for `COc1cc(-c2ccc(Cl)c(C)c2)c(F)cc1-n1c(=O)ccc2cc(S(=O)(=O)Nc3cscn3)ccc21` [Example 932, 1-(4′-chloro-2-fluoro-5-methoxy-3′-methyl-4-biphenylyl)-2-oxo-N-1,3-thiazol-4-yl-1,2-dihydro-6-quinolinesulfonamide], the IC50 (in-vitro Nav 1.7 PX data) amounted to 78 nM. `COc1ccc(-c2cncc(F)c2)cc1-n1c(=O)ccc2cc(S(=O)(=O)Nc3ccon3)ccc21` [Example 485, 1-(5-(5-fluoro-3-pyridinyl)-2-methoxyphenyl)-N-3-isoxazolyl-2-oxo-1,2-dihydro-6-quinolinesulfonamide] came in with a half-maximal inhibitory concentration (IC50) of 690 nM. Compound `COc1cc(-c2ccccc2F)c(F)cc1-n1c(=O)ccc2cc(S(=O)(=O)Nc3ccon3)ccc21` [Example 951, 1-(2,2′-difluoro-5-methoxy-4-biphenylyl)-N-3-isoxazolyl-2-oxo-1,2-dihydro-6-quinolinesulfonamide] gave a 50% inhibitory concentration (IC50) (in-vitro Nav 1.7 PX data) of 90 nM. Same read-out and setting: to `COc1cc(-c2cccc(C(F)(F)F)c2)ccc1-n1c(=O)ccc2cc(S(=O)(=O)Nc3cc(C)ncn3)ccc21` [Example 946, 1-(3-methoxy-3′-(trifluoromethyl)-4-biphenylyl)-N-(6-methyl-4-pyrimidinyl)-2-oxo-1,2-dihydro-6-quinolinesulfonamide] belongs 24 nM. With `COc1cc(-c2cc(F)cc(Cl)c2)c(F)cc1-n1c(=O)ccc2cc(S(=O)(=O)Nc3ccc(F)cn3)ccc21` [Example 920, 1-(3′-chloro-2,5′-difluoro-5-methoxy-4-biphenylyl)-N-(5-fluoro-2-pyridinyl)-2-oxo-1,2-dihydro-6-quinolinesulfonamide], under “in-vitro Nav 1.7 PX data”, inhibition was half-maximal at 60 nM (IC50). Same read-out and setting: in the case of `COc1cc(-c2cccc(C(F)(F)F)c2)ccc1-n1c(=O)ccc2cc(S(=O)(=O)Nc3cc(C)cnn3)ccc21` [Example 1137, 1-(3-methoxy-3′-(trifluoromethyl)-4-biphenylyl)-N-(5-methyl-3-pyridazinyl)-2-oxo-1,2-dihydro-6-quinolinesulfonamide] it was 36 nM. `COc1cc(-c2cnc(OC)c(Cl)c2)c(F)cc1-n1c(=O)ccc2cc(S(=O)(=O)Nc3ccnc(C)n3)ccc21` (atropisomer, axis not shown; (P)) [Example 1160, (P)-1-(4-(5-chloro-6-methoxy-3-pyridinyl)-5-fluoro-2-methoxyphenyl)-N-(2-methyl-4-pyrimidinyl)-2-oxo-1,2-dihydro-6-quinolinesulfonamide] showed a 50% inhibitory concentration (IC50) (in-vitro Nav 1.7 PX data, Table 4) of 42 nM.

`COc1cc(C)cc(-c2cc(OC)c(-n3c(=O)ccc4cc(S(=O)(=O)Nc5ccon5)ccc43)cc2F)c1` [Example 708, 1-(2-fluoro-3′,5-dimethoxy-5′-methyl-4-biphenylyl)-N-3-isoxazolyl-2-oxo-1,2-dihydro-6-quinolinesulfonamide]: half-maximal inhibition (in-vitro Nav 1.7 PX data) (IC50) was put at 10 nM. This counts as double-digit nanomolar.

With `COc1cc(-c2ccc(F)c(F)c2)c(F)cc1-n1c(=O)cnc2cc(S(=O)(=O)Nc3cccnn3)ccc21` [Example 1180, 2-oxo-N-3-pyridazinyl-1-(2,3′,4′-trifluoro-5-methoxy-4-biphenylyl)-1,2-dihydro-6-quinoxalinesulfonamide], the IC50 was 265 nM.

In turn, `COc1cc(-c2ccc(F)c(F)c2)c(F)cc1-n1c(=O)ccc2cc(S(=O)(=O)Nc3ncco3)ccc21` [Example 936, N-1,3-oxazol-2-yl-2-oxo-1-(2,3′,4′-trifluoro-5-methoxy-4-biphenylyl)-1,2-dihydro-6-quinolinesulfonamide] registered a 50% inhibitory concentration (IC50) (in-vitro Nav 1.7 PX data) of 41 nM.

Compound `COc1ccc(-c2ccc(C)c(Cl)c2)cc1-n1c(=O)ccc2cc(S(=O)(=O)Nc3ccon3)ccc21` [Example 885, 1-(3′-chloro-4-methoxy-4′-methyl-3-biphenylyl)-N-3-isoxazolyl-2-oxo-1,2-dihydro-6-quinolinesulfonamide] returned an IC50 (in-vitro Nav 1.7 PX data) of 12 nM. This IC50 is about 3.4-fold lower than that of the compound before. Same read-out and setting: to `COc1cc([C@H]2CC[C@@H](OC)CC2)c(F)cc1-n1c(=O)ccc2cc(S(=O)(=O)Nc3ccon3)ccc21` [Example 1086, 1-(5-fluoro-2-methoxy-4-(cis-4-methoxycyclohexyl)phenyl)-N-3-isoxazolyl-2-oxo-1,2-dihydro-6-quinolinesulfonamide, 1-(5-fluoro-2-methoxy-4-(trans-4-methoxycyclohexyl)phenyl)-N-3-isoxazolyl-2-oxo-1,2-dihydro-6-quinolinesulfonamide] belongs 3910 nM. On the same count and under the same terms, to `COc1nc(-c2cccc(C#N)c2)c(Cl)cc1-n1c(=O)ccc2cc(S(=O)(=O)Nc3ccon3)ccc21` [Example 1090, 1-(5-chloro-6-(3-cyanophenyl)-2-methoxy-3-pyridinyl)-N-3-isoxazolyl-2-oxo-1,2-dihydro-6-quinolinesulfonamide] belongs 201 nM; to `COc1cc(Br)c(F)cc1-n1c(=O)ccc2cc(S(=O)(=O)Nc3ccon3)ccc21` [Example 1105, 1-(4-bromo-5-fluoro-2-methoxyphenyl)-N-3-isoxazolyl-2-oxo-1,2-dihydro-6-quinolinesulfonamide], 307 nM. The compound `COc1cc(-c2ccc(F)c(F)c2)c(F)cc1-n1c(=O)ccc2cc(S(=O)(=O)Nc3cc(C)ncn3)ccc21` [Example 938, N-(6-methyl-4-pyrimidinyl)-2-oxo-1-(2,3′,4′-trifluoro-5-methoxy-4-biphenylyl)-1,2-dihydro-6-quinolinesulfonamide] returned a half-maximal inhibitory concentration (IC50) (in-vitro Nav 1.7 PX data) of 47 nM. In turn, `COc1cc(-c2ccc(C)c(F)c2)c(F)cc1-n1c(=O)ccc2cc(S(=O)(=O)Nc3ncccn3)ccc21` [Example 1126, 1-(2,3′-difluoro-5-methoxy-4′-methyl-4-biphenylyl)-2-oxo-N-2-pyrimidinyl-1,2-dihydro-6-quinolinesulfonamide] returned an IC50 (in-vitro Nav 1.7 PX data) of 57 nM. The same measure, in the same setting: in the case of `COc1cc(-c2cc(OC)c(-n3c(=O)ccc4cc(S(=O)(=O)Nc5ccon5)ccc43)cc2F)ccc1F` [Example 713, 1-(2,4′-difluoro-3′,5-dimethoxy-4-biphenylyl)-N-3-isoxazolyl-2-oxo-1,2-dihydro-6-quinolinesulfonamide] it was 15 nM. `COc1cc(Cl)cc(-c2cc(OC)c(-n3c(=O)ccc4cc(S(=O)(=O)Nc5ncco5)ccc43)cc2F)c1` [Example 926, 1-(3′-chloro-2-fluoro-5,5′-dimethoxy-4-biphenylyl)-N-1,3-oxazol-2-yl-2-oxo-1,2-dihydro-6-quinolinesulfonamide]: the midpoint of inhibition (in-vitro Nav 1.7 PX data), the IC50, lay at 6 nM.
